Test results reported in US20140309275A1, “Sphingosine Analogs, Compositions, and Methods Related Thereto” (Emory University, priority 2011, published 2014).
Like-named read-outs stand apart in the source and are kept apart here.

How the values were obtained:
[1] = Mouse tumor concentrations (human prostate cancer xenograft); assay type: in vivo, Nude mice; design: unit not given here; settings: tumors harvested, LC/MS/MS
From the text: Nude mice were subjected to human prostate cancer xenograft procedures, and resulting tumors were allowed to grow for 16 days. […] Once the scheduled time course had passed, the mice were sacrificed. Tumors were harvested, homogenized, and analyzed by LC/MS/MS for tumor-drug concentration.

[2] = tested on: P. falciparum chloroquine resistant (CQ-R) W2 strain; assay: [3H]-labeled hypoxanthine uptake assay, P. falciparum W2; assay type: cell-based; settings: Plasmodium falciparum
From the text: (§1) The [^3H]-labeled hypoxanthine uptake method was utilized to assay the effectiveness of our sphingoid base analogs in vitro for their ability to inhibit the growth and replication of malaria parasites in RBCs. […] The simian malaria parasite P. knowlesi has also been recognized as a human pathogen of public health concern in South East Asia, and it can be cultured effectively in vitro. This species was therefore included to probe the potential of multi-species efficacy within this compound class.
(§2) Cryopreserved iRBCs were provided by Dr. John W. Barnwell from the Centers for Disease Control and Prevention and maintained in in vitro culture as described in Trager & Jensen, Science 1976, 193 (4254), 673-5.
(§3) Compounds in Table 1 were dissolved in 70% 200-proof pharmaceutical grade ethanol, and a working solution of 0.2 mg/mL was prepared using hypoxanthine- and gentamicin-free incomplete RPMI 1640 (Gibco). Compounds in Table 2 were dissolved in 200 proof pharmaceutical grade ethanol at a concentration of 50 μM and then conjugated to BSA (Sigma) as described.^5 A working solution of 0.2 mg/mL was prepared using hypoxanthine- and gentamicin-free incomplete RPMI 1640 (Gibco). Two compounds were tested per plate in triplicate starting at 0.2 mg/mL and diluted two-fold down to 0.019 μg/mL using hypoxanthine- and gentamicin-free RPMI.
(§4) Parasite inoculum was prepared by mixing parasitized blood, uninfected 0+RBCs (for P. falciparum strains) or rhesus RBCs (for P. knowlesi) and culture medium (deficient in hypoxanthine and gentamicin) to a final concentration of 1% parasitemia and 1% haematocrit. A negative control was prepared by diluting uninfected erythrocytes to 1% haematocrit in culture medium. [^3H]-labeled hypoxanthine was added at 24 h (for P. falciparum strains) or 12 h (P. knowlesi) and the culture was collected 48 h or 12 h later for P. falciparum or P. knowlesi, respectively. [^3H] uptake was measured by using a scintillation spectrophotometer (Wallac Oy 1450 MicroBeta reader).
(§5) Triplicate wells were used to calculate the IC50 for each compound using the software XLFit v5.2 using the sigmoidal model 601. Average and standard deviations were calculated using Microsoft Excel.

[3] = Mouse PK studies (plasma and RBC levels); assay type: in vivo; settings: mice; for PK dose proportionality / plasma half-lives: p.o. 10 or 30 mg/kg single dose
Experimental: Enigmol (E) or N-Methyl-enigmol (NME) were dissolved as 10× stocks in ethanol, then diluted 1:10 in olive oil the day before dosing; dosing solutions were stored at room temperature overnight. Male mice, CD-1 or Swiss Webster (20 to 30 g), were dosed p.o. at either 10 or 30 mg/kg and 5 ml/kg (n=3/time point). For single dose studies with E and NME, bloods were sampled at 0.5, 1, 2, 4, 6, 8, 16 & 24 hrs. For the 5 day repeat dose study with E, samples were taken on day 5 at 0 (trough) 0.5, 1, 2, 4, 6, 8 & 24 hrs. Blood (˜0.3 ml) was obtained either from the submandibular vein using a 4 mm Small Animal Lancet (MEDIpoint), or by retro-orbital bleeding into 200 uL glass micropipettes (Drummond) under isoflurane anesthesia. Each mouse was sampled once and blood transferred immediately to 0.5 ml K EDTA or Li heparin microtainers (BD) in ice water. Tubes were centrifuged at 2000×g for 10 min in a refrigerated centrifuge to separate plasma from RBCs. The plasma supernatants and RBC pellets (when taken) were transferred into separate 1.5 mL Eppendorf tubes in ice water, then frozen on dry ice and stored at −80° C. prior to analysis by LC/MS/MS. Mouse plasma determinations of Enigmol and N-methylenigmol were done using a bioanalytical assay method consisting of a protein precipitation sample preparation step followed by analysis on an AB SCIEX QTRAP® 5500 LC/MS/MS System. The method employed an internal standard (ISTD) spiking technique with D17:0 sphinganine as the ISTD. The lower limit of quantitation (LLOQ) for the assay method was 10 ng/mL and the upper limit of quantitation (ULOQ) for the assay method was 1,000 ng/mL for both Enigmol and N-methylenigmol. Each bioanalytical run consisted of eight matrixes (mouse plasma) spiked calibration standards and six matrixes spiked quality control (QC) samples at three levels (30 ng/mL, 500 ng/mL, and 900 ng/mL) in duplicate along with unknown mouse study samples. […] Estimates of pharmacokinetic parameters from the single dose (10 mg/kg and 30 mg/kg PO) mouse studies were determined using WinNonlin® (Pharsight, Version 5.3).

[4] = tested on: LNCaP prostate cancer cells; assay: WST-1 cytotoxicity assay, LNCaP; assay type: cell-based; settings: Homo sapiens, 24 h treatment
Experimental: (§6) Prostate cancer cells were treated with enigmol or analogue for 24 h, and cytotoxicity was assessed by WST-1 assay. cLogPs were calculated with QuikProp on Maestro.

[5] = tested on: P. falciparum chloroquine susceptible (CQ-S) D6 strain; assay: [3H]-labeled hypoxanthine uptake assay, P. falciparum D6; assay type: cell-based; settings: Plasmodium falciparum, read-out: IC50 D6
From the text: as §1, §2, §3, §4, §5

P. knowlesi H strain = assay: [3H]-labeled hypoxanthine uptake assay, P. knowlesi; assay type: cell-based; settings: Plasmodium knowlesi; Table 1; compounds dissolved in 70% ethanol, not BSA-conjugated
From the text: as §1, with “class. The data were generated with the known antimalarial drugs chloroquine and mefloquine as controls.” for “class.”
The H strain of P. knowlesi has been adapted to in vitro culture using Macaca mulatta (rhesus monkey) RBCs essentially as described in Kocken et al., Infect Immun 2002, 70 (2), 655-60 (the media was supplemented with 10% human AB serum).
Chloroquine (Sigma) and mefloquine (Sigma) were used as controls. Compounds in Table 1 were dissolved in 70% 200-proof pharmaceutical grade ethanol, and a working solution of 0.2 mg/mL was prepared using hypoxanthine- and gentamicin-free incomplete RPMI 1640 (Gibco). Compounds in Table 2 were dissolved in 200 proof pharmaceutical grade ethanol at a concentration of 50 μM and then conjugated to BSA (Sigma) as described.^5 A working solution of 0.2 mg/mL was prepared using hypoxanthine- and gentamicin-free incomplete RPMI 1640 (Gibco). Two compounds were tested per plate in triplicate starting at 0.2 mg/mL and diluted two-fold down to 0.019 μg/mL using hypoxanthine- and gentamicin-free RPMI.
as §4, §5

[6] = tested on: PC-3 prostate cancer cells; assay: WST-1 cytotoxicity assay, PC-3; assay type: cell-based; settings: 24 h treatment
Experimental: as §6

sphingomyelin synthase = settings: background section; read-out: IC50 sphingomyelin synthase activity in RBCs; cited from earlier work
[7] = tested on: P. falciparum W2 strain parasites; assay: Morphological changes and parasitemia upon incubation, Giemsa-stained thin blood smears; assay type: cell-based
Experimental: Upon preliminary examination, morphological changes were detected in the P. falciparum W2 strain parasites after incubation of the cultures with N-Methylenigmol (ESPD-507). The effect was evident between 28 h and 48 h of incubation, with a quantitatively high percentage of various aberrant or stunted forms of ring-stage and trophozoite-stage parasites found on Giemsa-stained thin blood smears (see black arrows in FIG. 2 at 28 h highlighting the presence of abundant ring-stage parasites and at 48 h, noting a vacuolated appearance of trophozoite-stage parasites). These findings can be contrasted with the normal growth, development, and maturation of the parasites without the drug.
By the 48 hour time point, the parasitemia increased from 1% to 5.8+/−0.5% with healthy appearing parasites in the control samples, as expected, while it remained at 1.3+/−0.3% and with aberrant parasite forms in the sample incubated with N-Methylenigmol (Table 2). The relative percentages of rings, trophozoites and schizonts in the cultures with and without the ESPD 507 compound were 41.9%, 39.2% and 18.9% versus 87.9%, 4.2% and 8.05, respectively.
Samples were removed every 4 h and thin blood smears were prepared, stained with modified Giemsa stain, and analyzed by light microscopy for morphological changes in growth and development. The modular incubator used was gassed and returned to 37° C. in less than 5 minutes to avoid delay in parasite growth.

[8] = W2, Table 1, compounds dissolved in 70% ethanol, not BSA-conjugated, read-out: IC50 W2
[9] = W2, Table 2, compounds conjugated to BSA, read-out: IC50 W2
[10] = D6, Table 1, compounds dissolved in 70% ethanol, not BSA-conjugated
[11] = D6, Table 2, compounds conjugated to BSA

| SMILES | tumor-drug concentration ([1]; 3 mg/kg p.o. once daily) | tumor-drug concentration ([1]; 10 mg/kg p.o. once daily) | IC50 [2, 8] | IC50 [2, 9] | volumes of distribution [3] | PK dose proportionality [3] | plasma half-lives [3] | IC50 [5, 10] | IC50 [5, 11] | IC50 (P. knowlesi H strain) | also measured |
| --- | --- | --- | --- | --- | --- | --- | --- | --- | --- | --- | --- |
| C[C@H](N)[C@@H](O)C[C@@H](O)CCCCCCCCCCCCC(F)(F)F [CF3-Enigmol, (2S,3S,5S)-2-amino-18,18,18-trifluorooctadecane-3,5-diol] | 1147 | 9004 | – | – | – | – | – | – | – | – | – |
| CCCCCCCCCCCCCCCC(=O)NC(CN1CCOCC1)C(O)c1ccccc1 (stereo not drawn) [threo-PPMP, phenyl-2-palmitoylamino-3-morpholino-1-propanol] | – | – | – | – | – | – | – | – | – | – | IC50 (sphingomyelin synthase): 0.85 µM |

Now from value to molecule, other results behind:

| tumor-drug concentration ([1]; 3 mg/kg p.o. once daily) | tumor-drug concentration ([1]; 10 mg/kg p.o. once daily) | IC50 [2, 8] | IC50 [2, 9] | volumes of distribution [3] | PK dose proportionality [3] | plasma half-lives [3] | IC50 [5, 10] | IC50 [5, 11] | IC50 (P. knowlesi H strain) | SMILES | also measured |
| --- | --- | --- | --- | --- | --- | --- | --- | --- | --- | --- | --- |
| 317 | 1565 | 7.37 ± 1.5 µM | 9.2 ± 2 µM | large | dose proportional | long | 12.6 ± 2.4 µM | 5.3 ± 1 µM | 10.5 ± 0.38 µM | CCCCCCCCCCCCC[C@H](O)C[C@H](O)[C@H](C)N [ESPD-0500, (2S,3S,5S)-2-aminooctadecane-3,5-diol] | IC50 ([2]; W2, text b101, summary over W2 and D6 strains, read-out: IC50 / anti-malarial activity on both W2 and D6 strains): 7 to 12 µM; Kp at 5 day ([3]; male, mouse, red blood cells (RBC) relative to plasma, po, 30 mg/kg, 30 mg/kg orally once per day, after 5th day of dosing, read-out: drug concentrations in RBCs relative to plasma levels): ~3; plasma levels increase from accumulation ([3]; 30 mg/kg orally once per day, after 5th day of dosing): about 30%; IC50 [4]: 13 µM; IC50 [6]: 10 µM |
| – | – | – | 2.6 ± 1.5 µM | – | – | – | – | 2.5 ± 0.1 µM | – | CCCCCCCCCCCCC[C@H](O)CC(=O)C(C)(C)N [ESPD-0562, (S)-2-amino-5-hydroxy-2-methyloctadecan-3-one] | melting point: 31 to 33 °C |
| – | – | 1.58 ± 0.13 µM | 0.9 ± 0.35 µM | large | dose proportional | long | 4.7 ± 0.1 µM | 1.7 ± 1 µM | 1.72 ± 0.01 µM | CCCCCCCCCCCCC[C@H](O)C[C@H](O)[C@H](C)NC [ESPD-0507, N-Methylenigmol] | IC50 ([2]; W2, text b183, 546.94 ng/mL used for the morphology study, W2, read-out: IC50): 1.73 µM; parasitemia ([7]; 48 hour time point, start 1%, compound at 546.94 ng/mL): 1.3+/−0.3%; relative percentage of rings ([7]; culture with compound, 48 h): 41.9%; relative percentage of schizonts ([7]; culture with compound, 48 h): 18.9%; relative percentage of trophozoites ([7]; culture with compound, 48 h): 39.2% |
